Assay results reported in patent US6455593B1, “Method of dynamic retardation of cell cycle kinetics to potentiate cell damage” (priority 1995, dated 2002).
Read-outs that look alike come from different tables or passages of the source.

Columns and labels:
Type in all cases: cell-based
[1] = tested on: human promonocytic lymphoma cells (U937); assay: Microculture indicator system (MIS), MTT growth inhibition assay with bivariate serial dilutions; conditions: for inhibition at 0.01 µg/mL / inhibition at 0.02 µg/mL / inhibition at 0.03 µg/mL / inhibition at 0.06 µg/mL / inhibition at 0.5 µg/mL / inhibition at 1 µg/mL / inhibition at 2 µg/mL / inhibition at 4 µg/mL: Homo sapiens
Summary of the method: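 U937 human promonocytic lymphoma cells were tested in flat-bottom 96-well plates. Two agents were each diluted two-fold by serial mixing, then combined into bivariate dilution series before about 1×10^5 cells per well were added in RPMI 1640 with 10% Nurserum and antibiotics, 100 μl per well. Plates were incubated at 37° C. Thirty μl of 0.5% MTT was then added for 3 hr. Formazan was dissolved overnight with 120 μl of 10 % SDS/0.01 N HCl and absorbance was read at 570 nm against a cell-free blank.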

[2] = tested on: p. falciparum W2; assay: Parasite growth by 3H-hypoxanthine uptake in infected erythrocytes; conditions: Plasmodium falciparum, W2, Erythrocyte, read-out: inhibitory concentrations (IC50), strain W2
[3] = tested on: p. falciparum D6; assay: as above; conditions: Plasmodium falciparum, D6, Erythrocyte, read-out: inhibitory concentrations (IC50), strain D6
[4] = tested on: human malignant lymphoma cells (U937); assay: Clonogenic assay in methylcellulose
Text: Elimination of a targeted cell population by a cytotoxic agent or agent combinations can not be assured if cells with generative capacity survive. The clonogenic assay in soft agar or methylcellulose is a practical and useful means of determining long-term effects of cytotoxic agents on a malignant cell population, since malignant cells are often capable of growing and forming colonies in these media. The colony forming efficiency of any line or population of malignant cells must be established from the colony count in relationship to the inoculum number and varies over a wide range. […] (same protocol as Example 2A, Table 7). Methylcellulose (MC) solution 2.1-2.3% was obtained from Stem Cell Technologies in Vancouver, B.C. and made up in a series of sterile tubes: (a) 0.4 ml MC stock solution, (b) 50 μl of NuSerum, (c) 2×10^4 cells from the treated cell suspension from the 24-well plate (about 250 μl) and (d) complete growth medium to make a final volume of 1 ml (final cell density=about 2×10^4 cells). A syringe with 18 g. needle was used to transfer load 100 μl of each sample the final cell preparation to each of triplicate wells in a 96-well plate. Thus the final cell number was about 2,000 cells/well. Plates were examined daily for colony formation. At days 3-5, colonies were counted. and colonies were overlaid with MTT: 25 μl, incubated overnight at 37° C. and 100 μl of 4% formalin was added to aid visualization and photography. […] The effective cytotoxicity was calculated as 1−C/C0 where C=the number of colonies formed by a sample of treated cells and C0=the number of colonies formed by an equal sample of untreated cells.

[5] = 24 hr after RBC infection, 3H-hypoxanthine uptake

C[C@@]1(CO)[C@H](O)CC[C@@]2(C)[C@H]1CC[C@H]1C[C@@H]3C[C@@]12CC[C@]3(O)CO [Aph, aphidicolin]
inhibition at 0.01 µg/mL ([1]; U-937, 4 h, U937, Aph 0.01 ug/ml 4 H, K252a 0, read-out: MTT % inhibition, Aph only): 5%
inhibition at 0.02 µg/mL ([1]; U-937, 4 h, U937, Aph 0.02 ug/ml 4 H, K252a 0, read-out: MTT % inhibition, Aph only): 0%
inhibition at 0.03 µg/mL ([1]; U-937, 4 h, U937, Aph 0.03 ug/ml 4 H, K252a 0, read-out: MTT % inhibition, Aph only): 1%
inhibition at 0.06 µg/mL ([1]; U-937, 4 h, U937, Aph 0.06 ug/ml 4 H, K252a 0, read-out: MTT % inhibition, Aph only): 14%
inhibition at 0.5 µg/mL ([1]; U-937, 4 h, U937, Aph 0.50 ug/ml 4 H, K252a 0, read-out: MTT % inhibition, Aph only): 9%
inhibition at 1 µg/mL ([1]; U-937, 4 h, U937, Aph 1.00 ug/ml 4 H, K252a 0, read-out: MTT % inhibition, Aph only): 14%
inhibition at 2 µg/mL ([1]; U-937, 4 h, U937, Aph 2.00 ug/ml 4 H, K252a 0, read-out: MTT % inhibition, Aph only): 24%
inhibition at 4 µg/mL ([1]; U-937, 4 h, U937, Aph 4.00 ug/ml 4 H, K252a 0, read-out: MTT % inhibition, Aph only): 38%
inhibition at 0.01 µg/mL ([1]; U-937, U937, total 18 H, STSP 14 H, Aph 4 H, Aph 0.01 ug/ml, STSP nM by row: r7 100, r8 50, r9 25, r10 12.5, r11 6.25, r12 3.13, r13-r14 0, read-out: Growth inhibition (MTT)): 1%
inhibition at 0.02 µg/mL ([1]; U-937, U937, total 18 H, STSP 14 H, Aph 4 H, Aph 0.02 ug/ml, STSP nM by row: r7 100, r8 50, r9 25, r10 12.5, r11 6.25, r12 3.13, r13-r14 0, read-out: Growth inhibition (MTT)): 7%
inhibition at 0.03 µg/mL ([1]; U-937, U937, total 18 H, STSP 14 H, Aph 4 H, Aph 0.03 ug/ml, STSP nM by row: r7 100, r8 50, r9 25, r10 12.5, r11 6.25, r12 3.13, r13-r14 0, read-out: Growth inhibition (MTT)): 6%
inhibition at 0.06 µg/mL ([1]; U-937, U937, total 18 H, STSP 14 H, Aph 4 H, Aph 0.06 ug/ml, STSP nM by row: r7 100, r8 50, r9 25, r10 12.5, r11 6.25, r12 3.13, r13-r14 0, read-out: Growth inhibition (MTT)): 9%
inhibition at 0.5 µg/mL ([1]; U-937, U937, total 18 H, STSP 14 H, Aph 4 H, Aph 0.50 ug/ml, STSP nM by row: r7 100, r8 50, r9 25, r10 12.5, r11 6.25, r12 3.13, r13-r14 0, read-out: Growth inhibition (MTT)): 21%
inhibition at 1 µg/mL ([1]; U-937, U937, total 18 H, STSP 14 H, Aph 4 H, Aph 1.00 ug/ml, STSP nM by row: r7 100, r8 50, r9 25, r10 12.5, r11 6.25, r12 3.13, r13-r14 0, read-out: Growth inhibition (MTT)): 22%
inhibition at 2 µg/mL ([1]; U-937, U937, total 18 H, STSP 14 H, Aph 4 H, Aph 2.00 ug/ml, STSP nM by row: r7 100, r8 50, r9 25, r10 12.5, r11 6.25, r12 3.13, r13-r14 0, read-out: Growth inhibition (MTT)): 31%
inhibition at 4 µg/mL ([1]; U-937, U937, total 18 H, STSP 14 H, Aph 4 H, Aph 4.00 ug/ml, STSP nM by row: r7 100, r8 50, r9 25, r10 12.5, r11 6.25, r12 3.13, r13-r14 0, read-out: Growth inhibition (MTT)): 30%
Potentiation of DNA damage by STSP as RA ([1]; U937, concentrations less than IC40, STSP as the TCI): proved successful in potentiating DNA damage by STSP
combined results ratio, Aph only (baseline line) ([1]; U937, Aph alone, every Aph concentration 4.00-0.01 ug/ml): 1.0
Combined results ratio ([1]; U937, total 18 H, STSP 14 H, Aph 4 H, Aph 0.01 ug/ml, STSP nM by row: r7 100, r8 50, r9 25, r10 12.5, r11 6.25, r12 3.13, r13-r14 0): 1.0
Combined results ratio ([1]; U937, total 18 H, STSP 14 H, Aph 4 H, Aph 0.02 ug/ml, STSP nM by row: r7 100, r8 50, r9 25, r10 12.5, r11 6.25, r12 3.13, r13-r14 0): 1.0
Combined results ratio ([1]; U937, total 18 H, STSP 14 H, Aph 4 H, Aph 0.03 ug/ml, STSP nM by row: r7 100, r8 50, r9 25, r10 12.5, r11 6.25, r12 3.13, r13-r14 0): 1.0
Combined results ratio ([1]; U937, total 18 H, STSP 14 H, Aph 4 H, Aph 0.06 ug/ml, STSP nM by row: r7 100, r8 50, r9 25, r10 12.5, r11 6.25, r12 3.13, r13-r14 0): 1.0
Combined results ratio ([1]; U937, total 18 H, STSP 14 H, Aph 4 H, Aph 0.50 ug/ml, STSP nM by row: r7 100, r8 50, r9 25, r10 12.5, r11 6.25, r12 3.13, r13-r14 0): 1.0
Combined results ratio ([1]; U937, total 18 H, STSP 14 H, Aph 4 H, Aph 1.00 ug/ml, STSP nM by row: r7 100, r8 50, r9 25, r10 12.5, r11 6.25, r12 3.13, r13-r14 0): 1.0
Combined results ratio ([1]; U937, total 18 H, STSP 14 H, Aph 4 H, Aph 2.00 ug/ml, STSP nM by row: r7 100, r8 50, r9 25, r10 12.5, r11 6.25, r12 3.13, r13-r14 0): 1.0
Combined results ratio ([1]; U937, total 18 H, STSP 14 H, Aph 4 H, Aph 4.00 ug/ml, STSP nM by row: r7 100, r8 50, r9 25, r10 12.5, r11 6.25, r12 3.13, r13-r14 0): 1.0
IC50 [2, 5]: 123 nM
IC50 [3, 5]: 400 nM

CN[C@@H]1C[C@H]2O[C@@](C)([C@@H]1OC)n1c3ccccc3c3c4c(c5c6ccccc6n2c5c31)C(=O)NC4 [STSP, staurosporine]
IC50 [2]: 150 nM
IC50 [3]: 190 nM
Emax at 0.02 µM ([4]; Homo sapiens, U-937, 96 h, read-out: Maximum effective cytotoxicity (1-C/C0), clonogenic): 40 to 60%
Effective cytotoxicity, clonogenic ([4]; optimal synergistic match of dThd and STSP, 96 hours): almost total cytotoxicity
